Reference: ChEMBL document CHEMBL4261615, “Design, synthesis, biological evaluation and cellular imaging of imidazo[4,5-b]pyridine derivatives as potent and selective TAM inhibitors” (Bioorg Med Chem, 2018)
pIC50: −log10 of the molar value. Calls of active or inactive are those of the source. The calls are words filed in the database; no cut-off is given here.

Assays:
[1] = biological target: T1, Aurora kinase A (Homo sapiens) (UniProt O14965); assay: Binding affinity to wild-type human partial length AURKA (E122 to K401 residues) expressed in mammalian expression system assessed as fraction of unbound kinase to substrate at 10 uM after 1 hr by KinomeScan assay
T1 sequence (whole entry): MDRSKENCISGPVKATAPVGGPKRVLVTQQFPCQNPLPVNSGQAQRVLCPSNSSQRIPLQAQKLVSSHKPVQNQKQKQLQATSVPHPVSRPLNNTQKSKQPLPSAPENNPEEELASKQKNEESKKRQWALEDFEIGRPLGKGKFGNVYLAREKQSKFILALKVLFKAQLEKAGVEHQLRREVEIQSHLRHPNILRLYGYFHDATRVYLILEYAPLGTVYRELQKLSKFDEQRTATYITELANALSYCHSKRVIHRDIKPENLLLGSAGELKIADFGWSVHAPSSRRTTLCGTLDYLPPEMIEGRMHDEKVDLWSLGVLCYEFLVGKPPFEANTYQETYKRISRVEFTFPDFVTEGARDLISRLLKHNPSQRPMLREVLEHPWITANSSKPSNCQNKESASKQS

[2] = species: Homo sapiens; assay: Antiproliferative activity against human MGHU3 cells after 72 hrs by CellTiter-Glo assay; format: functional, cell-based
[3] = biological target: T2, Tyrosine-protein kinase Mer (Homo sapiens) (UniProt Q12866); assay: Binding affinity to wild-type partial length human MER (R557 to L884 residues) expressed in bacterial expression system assessed as fraction of unbound kinase to substrate at 1 uM after 1 hr by KinomeScan assay
T2 sequence (whole entry): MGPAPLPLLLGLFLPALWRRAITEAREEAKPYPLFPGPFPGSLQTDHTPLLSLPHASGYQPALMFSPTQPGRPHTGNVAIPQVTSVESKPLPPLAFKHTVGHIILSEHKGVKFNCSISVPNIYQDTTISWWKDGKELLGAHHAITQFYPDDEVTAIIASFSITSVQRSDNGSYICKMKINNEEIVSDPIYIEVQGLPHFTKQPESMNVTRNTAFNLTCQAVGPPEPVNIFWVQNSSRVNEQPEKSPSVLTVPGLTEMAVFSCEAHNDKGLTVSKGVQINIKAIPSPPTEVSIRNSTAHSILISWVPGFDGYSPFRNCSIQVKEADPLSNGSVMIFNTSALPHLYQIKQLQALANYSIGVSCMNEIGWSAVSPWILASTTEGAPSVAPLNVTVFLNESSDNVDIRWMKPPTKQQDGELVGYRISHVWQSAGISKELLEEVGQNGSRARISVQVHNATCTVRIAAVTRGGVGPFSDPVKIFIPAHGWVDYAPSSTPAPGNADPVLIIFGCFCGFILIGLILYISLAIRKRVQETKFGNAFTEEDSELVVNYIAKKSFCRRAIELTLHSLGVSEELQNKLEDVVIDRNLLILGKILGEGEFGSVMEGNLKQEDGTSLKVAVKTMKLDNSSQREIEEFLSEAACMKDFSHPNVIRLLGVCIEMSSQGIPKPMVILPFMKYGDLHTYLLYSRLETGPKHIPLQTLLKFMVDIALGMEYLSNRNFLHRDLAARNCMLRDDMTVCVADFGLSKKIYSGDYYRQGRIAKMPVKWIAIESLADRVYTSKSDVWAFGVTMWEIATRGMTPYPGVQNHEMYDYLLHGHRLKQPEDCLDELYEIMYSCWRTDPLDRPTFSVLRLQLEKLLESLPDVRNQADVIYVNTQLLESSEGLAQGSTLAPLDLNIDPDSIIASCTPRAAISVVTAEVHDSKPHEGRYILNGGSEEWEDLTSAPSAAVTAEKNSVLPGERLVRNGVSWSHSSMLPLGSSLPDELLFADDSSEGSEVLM

[4] = biological target: Cyclin-dependent kinase 2 (Homo sapiens) (UniProt P24941); assay: Binding affinity to wild-type human full length CDK2 (M1 to L298 residues) expressed in bacterial expression system assessed as fraction of unbound kinase to substrate at 1 uM after 1 hr by KinomeScan assay
[5] = biological target: Hepatocyte growth factor receptor (Homo sapiens) (UniProt P08581); assay: Binding affinity to human MET (D1010 to S1367 residues) expressed in bacterial expression system assessed as fraction of unbound kinase to substrate at 10 uM after 1 hr by KinomeScan assay
Sequence of Hepatocyte growth factor receptor (Homo sapiens) (P08581 whole entry, the tested form may be a part): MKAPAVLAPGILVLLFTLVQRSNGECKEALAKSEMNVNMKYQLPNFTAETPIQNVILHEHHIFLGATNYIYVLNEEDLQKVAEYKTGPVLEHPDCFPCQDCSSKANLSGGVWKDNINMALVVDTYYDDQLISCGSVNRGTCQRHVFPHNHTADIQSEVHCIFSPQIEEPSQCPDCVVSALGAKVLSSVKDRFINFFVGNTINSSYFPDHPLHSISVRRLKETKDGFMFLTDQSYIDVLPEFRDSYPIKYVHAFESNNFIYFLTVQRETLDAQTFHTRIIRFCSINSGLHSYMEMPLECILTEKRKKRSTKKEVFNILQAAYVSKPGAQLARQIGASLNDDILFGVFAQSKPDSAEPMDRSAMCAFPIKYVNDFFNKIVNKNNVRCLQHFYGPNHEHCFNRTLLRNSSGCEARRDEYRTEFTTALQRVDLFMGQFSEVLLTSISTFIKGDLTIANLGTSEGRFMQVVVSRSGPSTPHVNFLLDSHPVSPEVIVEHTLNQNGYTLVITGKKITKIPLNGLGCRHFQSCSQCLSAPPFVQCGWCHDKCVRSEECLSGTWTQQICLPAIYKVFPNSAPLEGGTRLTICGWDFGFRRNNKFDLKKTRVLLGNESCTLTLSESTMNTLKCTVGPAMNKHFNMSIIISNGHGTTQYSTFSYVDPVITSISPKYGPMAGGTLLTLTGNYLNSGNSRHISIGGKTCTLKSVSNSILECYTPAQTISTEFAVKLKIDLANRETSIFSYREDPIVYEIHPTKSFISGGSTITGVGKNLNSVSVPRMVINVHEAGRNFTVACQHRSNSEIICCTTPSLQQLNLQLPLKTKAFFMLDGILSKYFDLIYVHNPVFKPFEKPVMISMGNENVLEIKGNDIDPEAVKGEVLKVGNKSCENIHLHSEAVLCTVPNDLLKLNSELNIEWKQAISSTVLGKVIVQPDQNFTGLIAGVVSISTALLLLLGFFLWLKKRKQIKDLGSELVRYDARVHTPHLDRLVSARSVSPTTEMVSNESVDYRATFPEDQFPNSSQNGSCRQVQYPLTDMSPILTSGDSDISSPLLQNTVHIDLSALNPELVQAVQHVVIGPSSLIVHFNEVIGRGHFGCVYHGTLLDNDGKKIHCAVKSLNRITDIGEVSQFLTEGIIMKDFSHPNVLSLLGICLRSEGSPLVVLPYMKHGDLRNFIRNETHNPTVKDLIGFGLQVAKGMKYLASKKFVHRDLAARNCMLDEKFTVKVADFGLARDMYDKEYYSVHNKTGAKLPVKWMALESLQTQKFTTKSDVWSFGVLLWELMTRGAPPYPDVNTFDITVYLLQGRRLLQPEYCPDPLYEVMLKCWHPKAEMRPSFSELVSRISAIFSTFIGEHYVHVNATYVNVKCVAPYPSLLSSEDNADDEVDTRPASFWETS

[6] = biological target: T3, Tyrosine-protein kinase receptor TYRO3 (Homo sapiens, UniProt Q06418); assay: Inhibition of recombinant GST-tagged human Tyro3 (451 to 890 residues) cytoplasmic domain expressed in Baculovirus expression system using poly (Glu-Ala-Tyr) peptide as substrate after 5 mins in presence of ADP by fluorescence analysis
T3 sequence (Q06418 whole entry): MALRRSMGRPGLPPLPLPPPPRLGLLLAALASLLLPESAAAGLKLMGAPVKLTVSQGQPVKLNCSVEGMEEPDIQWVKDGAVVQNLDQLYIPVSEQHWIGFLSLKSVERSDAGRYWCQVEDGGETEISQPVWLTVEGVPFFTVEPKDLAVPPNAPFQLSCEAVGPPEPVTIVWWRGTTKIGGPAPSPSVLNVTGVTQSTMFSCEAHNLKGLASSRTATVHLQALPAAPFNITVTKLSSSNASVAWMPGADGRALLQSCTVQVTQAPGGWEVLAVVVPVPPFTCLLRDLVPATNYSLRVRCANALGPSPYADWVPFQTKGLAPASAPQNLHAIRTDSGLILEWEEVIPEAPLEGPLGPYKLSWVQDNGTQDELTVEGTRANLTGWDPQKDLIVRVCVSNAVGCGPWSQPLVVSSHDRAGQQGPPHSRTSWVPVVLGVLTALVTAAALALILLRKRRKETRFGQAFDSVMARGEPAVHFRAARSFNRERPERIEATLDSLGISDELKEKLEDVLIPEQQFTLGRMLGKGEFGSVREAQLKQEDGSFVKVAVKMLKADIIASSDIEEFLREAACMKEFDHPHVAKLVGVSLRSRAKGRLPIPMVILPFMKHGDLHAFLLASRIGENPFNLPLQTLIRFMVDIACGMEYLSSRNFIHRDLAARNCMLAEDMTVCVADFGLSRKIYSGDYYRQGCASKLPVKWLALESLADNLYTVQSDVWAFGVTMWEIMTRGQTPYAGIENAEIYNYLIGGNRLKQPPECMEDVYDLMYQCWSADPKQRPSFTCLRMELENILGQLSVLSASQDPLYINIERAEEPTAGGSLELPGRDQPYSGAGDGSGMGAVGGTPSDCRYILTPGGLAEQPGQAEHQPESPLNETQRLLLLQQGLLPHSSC

[7] = biological target: T4, Tyrosine-protein kinase Mer (Homo sapiens, UniProt Q12866); assay: Inhibition of recombinant GST-tagged human Mer (578 to 872 residues) cytoplasmic domain expressed in Baculovirus system using poly (Glu-Ala-Tyr) peptide as substrate after 5 mins in presence of ADP by fluorescence analysis
T4 sequence (Q12866 whole entry): T2 sequence (whole entry)

[8] = biological target: Tyrosine-protein kinase ABL1 (Homo sapiens) (UniProt P00519); assay: Binding affinity to human wild type ABL1 (229 to 512 residues) expressed in mammalian expression system assessed as fraction of unbound kinase to substrate at 10 uM after 1 hr by KinomeScan assay
Sequence of Tyrosine-protein kinase ABL1 (Homo sapiens) (P00519 whole entry, the tested form may be a part): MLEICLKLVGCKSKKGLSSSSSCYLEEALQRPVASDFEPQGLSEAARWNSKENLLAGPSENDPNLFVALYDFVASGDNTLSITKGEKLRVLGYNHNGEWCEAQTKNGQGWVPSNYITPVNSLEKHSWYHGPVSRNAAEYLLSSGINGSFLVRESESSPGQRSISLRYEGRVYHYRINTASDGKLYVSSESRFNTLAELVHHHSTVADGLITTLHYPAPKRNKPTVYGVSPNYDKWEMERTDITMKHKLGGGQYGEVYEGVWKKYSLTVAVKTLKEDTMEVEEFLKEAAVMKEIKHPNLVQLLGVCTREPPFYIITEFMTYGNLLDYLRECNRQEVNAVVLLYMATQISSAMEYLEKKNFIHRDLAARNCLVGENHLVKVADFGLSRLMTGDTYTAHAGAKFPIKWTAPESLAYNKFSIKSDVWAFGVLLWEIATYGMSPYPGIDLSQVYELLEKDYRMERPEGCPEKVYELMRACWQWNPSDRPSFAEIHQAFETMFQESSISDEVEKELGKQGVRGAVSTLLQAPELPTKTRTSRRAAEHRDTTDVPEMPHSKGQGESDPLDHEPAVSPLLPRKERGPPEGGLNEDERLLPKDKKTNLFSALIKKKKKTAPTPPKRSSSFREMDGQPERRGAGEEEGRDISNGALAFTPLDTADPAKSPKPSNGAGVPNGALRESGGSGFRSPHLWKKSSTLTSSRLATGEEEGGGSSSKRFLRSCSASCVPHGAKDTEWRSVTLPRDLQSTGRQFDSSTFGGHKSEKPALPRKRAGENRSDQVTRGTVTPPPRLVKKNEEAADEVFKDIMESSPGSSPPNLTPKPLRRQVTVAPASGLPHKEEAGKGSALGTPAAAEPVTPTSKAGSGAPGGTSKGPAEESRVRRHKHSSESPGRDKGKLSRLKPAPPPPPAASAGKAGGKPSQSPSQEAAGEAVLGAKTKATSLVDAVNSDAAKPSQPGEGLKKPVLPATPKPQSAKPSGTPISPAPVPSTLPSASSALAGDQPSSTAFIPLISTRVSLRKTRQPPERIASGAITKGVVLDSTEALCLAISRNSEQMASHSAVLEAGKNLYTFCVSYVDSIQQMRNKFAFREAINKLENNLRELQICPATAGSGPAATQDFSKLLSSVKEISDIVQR

Row | Activity [1] [%] | Activity [3] [%] | Activity [4] [%] | Activity [5] [%] | pIC50 [6] | pIC50 [7] | Activity [8] [%] | SMILES | Activity [2]
1 | 41 | 78 | 0 | 96.2 | < 4.00 | < 4.00 | 3 | Cc1cnc2[nH]cnc2c1Oc1ccc(NC(=O)c2cccn(-c3ccc(F)cc3)c2=O)cc1F | inactive
2 | 12 | 99.6 | 95.5 | 96.6 | 5.33 | 7.40 | 17 | CC(C)c1nc2c(Oc3ccc(NC(=O)c4cccn(-c5ccc(F)cc5)c4=O)cc3F)ccnc2[nH]1 | inactive
3 | 45 | 60 | 0 | 96.4 | 6.57 | 8.05 | 0 | O=C(Nc1ccc(Oc2c(Br)cnc3[nH]cnc23)c(F)c1)c1cccn(-c2ccc(F)cc2)c1=O | 
4 | 13 | 99.3 | 0 | 97 | 6.16 | 7.05 | 34 | O=C(Nc1ccc(Oc2ccnc3[nH]cnc23)c(F)c1)c1cccn(-c2ccc(F)cc2)c1=O | inactive
